From BindingDB's records for patent US20250066350 (Innovstone Therapeutics, 2025)

The compounds below were run against Serine/threonine-protein kinase ATR (Homo sapiens, UniProt Q13535) (assay: ATR Enzyme Assay).
Source text: I. Experimental Materials and Instruments1. ATR enzyme (Eurofins Pharma Discovery Services, 14-953M)2. GST-tagged P53 protein (Eurofins Pharma Discovery Services, 14-952M)3. 384-well plate (Geriner bio-one, 784075)4. U-bottom 96-well plate (Geriner bio-one, 651201)5. Anti-phospho-P53 protein antibody labeled with europium cryptate (cisbio, 61P08KAZ)6. Anti-GST antibody linked to d2 (cisbio, 61GSTDLB)7. ATP solution (Sigma, R0441)8. DTT (Sigma, D0632-259)9. HEPES (Sigma, 15630080)10. Microplate reader (Envision 2104 Multilabel Reader)II. Experimental Steps15 nM ATR enzyme, 80 nM P53 protein, 300 nM ATP (the final concentrations were 40 nM and 150 nM, respectively), and small molecule compounds of various concentrations (the final concentrations (nM) of the ten points were 2985.0, 895.5, 298.5, 110.56, 33.17, 11.06, 4.09, 1.23, 0.41 and 0.15, respectively, and the final dimethyl sulfoxide concentration was 0.498%) were mixed and incubated at room temperature for 90 minutes. 10 μL of 2× cocktail buffer was added to the mixture of ATR, compound and substrate in the assay plate (anti-phospho-p53-Eu and anti-GST-d2 were diluted in the assay buffer). The resulting mixture was centrifuged at 1000 rpm for 30 seconds, and incubated overnight at 4° C. in the dark (a total of 20 μl in each well). The FRET signal (endpoint) was measured in the Envision instrument (HTRF 665/612 ratio was calculated at 665 nm emission and 612 nm emission). Data were processed using GraphPad software.

Sequence of Serine/threonine-protein kinase ATR (Q13535 whole entry): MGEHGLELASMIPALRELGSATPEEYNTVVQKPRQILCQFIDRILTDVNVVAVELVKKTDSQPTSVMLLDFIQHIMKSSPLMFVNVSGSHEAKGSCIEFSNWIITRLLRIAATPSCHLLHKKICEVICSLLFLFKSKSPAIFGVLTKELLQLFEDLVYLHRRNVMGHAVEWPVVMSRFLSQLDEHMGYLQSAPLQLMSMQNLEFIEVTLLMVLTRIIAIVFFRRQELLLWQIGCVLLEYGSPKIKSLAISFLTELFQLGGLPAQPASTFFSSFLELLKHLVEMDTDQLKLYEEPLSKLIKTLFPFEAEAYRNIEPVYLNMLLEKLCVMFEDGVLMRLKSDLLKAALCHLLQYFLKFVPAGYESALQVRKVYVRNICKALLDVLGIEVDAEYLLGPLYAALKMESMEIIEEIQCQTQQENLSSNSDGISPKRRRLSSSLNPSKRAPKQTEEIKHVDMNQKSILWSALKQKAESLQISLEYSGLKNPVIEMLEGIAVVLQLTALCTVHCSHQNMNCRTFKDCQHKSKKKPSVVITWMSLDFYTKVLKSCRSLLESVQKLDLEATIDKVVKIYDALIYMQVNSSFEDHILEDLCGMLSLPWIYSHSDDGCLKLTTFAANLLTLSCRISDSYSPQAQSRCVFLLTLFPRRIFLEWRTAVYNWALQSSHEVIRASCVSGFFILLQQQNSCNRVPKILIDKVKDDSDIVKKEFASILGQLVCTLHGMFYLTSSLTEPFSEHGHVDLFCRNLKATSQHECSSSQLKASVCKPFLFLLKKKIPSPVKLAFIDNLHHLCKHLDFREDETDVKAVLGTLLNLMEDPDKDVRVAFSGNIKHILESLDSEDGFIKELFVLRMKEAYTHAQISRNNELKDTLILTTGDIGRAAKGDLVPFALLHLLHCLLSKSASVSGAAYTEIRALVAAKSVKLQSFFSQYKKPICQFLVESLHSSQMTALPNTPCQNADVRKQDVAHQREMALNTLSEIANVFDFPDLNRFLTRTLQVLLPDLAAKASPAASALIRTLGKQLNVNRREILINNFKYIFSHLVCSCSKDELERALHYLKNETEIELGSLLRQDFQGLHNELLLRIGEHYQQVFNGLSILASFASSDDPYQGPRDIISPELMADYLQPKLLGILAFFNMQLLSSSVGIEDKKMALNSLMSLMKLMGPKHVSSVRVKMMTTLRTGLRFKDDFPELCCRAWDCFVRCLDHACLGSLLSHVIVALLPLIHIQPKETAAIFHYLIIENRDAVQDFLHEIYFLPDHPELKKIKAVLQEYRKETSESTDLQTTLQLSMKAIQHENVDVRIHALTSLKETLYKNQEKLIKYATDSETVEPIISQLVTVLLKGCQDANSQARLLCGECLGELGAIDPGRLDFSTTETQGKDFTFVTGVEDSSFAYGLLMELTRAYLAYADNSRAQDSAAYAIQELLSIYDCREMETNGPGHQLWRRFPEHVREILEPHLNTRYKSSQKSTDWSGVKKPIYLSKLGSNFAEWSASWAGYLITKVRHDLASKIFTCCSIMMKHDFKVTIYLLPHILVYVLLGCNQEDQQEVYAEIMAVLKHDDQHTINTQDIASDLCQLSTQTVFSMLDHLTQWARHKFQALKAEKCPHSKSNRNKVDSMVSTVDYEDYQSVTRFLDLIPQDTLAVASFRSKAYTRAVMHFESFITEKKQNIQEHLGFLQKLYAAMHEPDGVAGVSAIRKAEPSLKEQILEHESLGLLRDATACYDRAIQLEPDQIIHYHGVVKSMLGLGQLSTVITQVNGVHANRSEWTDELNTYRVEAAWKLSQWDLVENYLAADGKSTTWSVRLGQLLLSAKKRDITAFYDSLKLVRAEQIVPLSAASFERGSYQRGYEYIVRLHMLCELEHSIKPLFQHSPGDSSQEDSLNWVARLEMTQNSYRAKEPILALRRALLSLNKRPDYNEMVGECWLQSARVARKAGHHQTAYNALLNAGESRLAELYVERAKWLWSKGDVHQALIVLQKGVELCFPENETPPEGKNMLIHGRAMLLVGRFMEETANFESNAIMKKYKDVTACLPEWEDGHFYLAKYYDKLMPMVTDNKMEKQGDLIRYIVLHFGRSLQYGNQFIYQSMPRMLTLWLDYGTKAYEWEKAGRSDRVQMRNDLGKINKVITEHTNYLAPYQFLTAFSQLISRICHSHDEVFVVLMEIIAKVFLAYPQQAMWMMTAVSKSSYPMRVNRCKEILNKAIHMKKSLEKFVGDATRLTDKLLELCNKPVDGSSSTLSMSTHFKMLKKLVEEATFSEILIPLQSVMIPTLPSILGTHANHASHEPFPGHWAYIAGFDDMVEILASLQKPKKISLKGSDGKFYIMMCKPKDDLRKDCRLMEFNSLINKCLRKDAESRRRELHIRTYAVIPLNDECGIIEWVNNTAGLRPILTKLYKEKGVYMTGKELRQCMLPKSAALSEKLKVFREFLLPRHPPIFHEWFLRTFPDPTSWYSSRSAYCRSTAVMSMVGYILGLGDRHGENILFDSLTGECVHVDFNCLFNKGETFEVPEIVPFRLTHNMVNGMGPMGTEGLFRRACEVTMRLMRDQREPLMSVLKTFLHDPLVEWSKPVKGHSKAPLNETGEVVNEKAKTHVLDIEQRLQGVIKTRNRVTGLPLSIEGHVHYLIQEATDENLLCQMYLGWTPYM

IC50, < 10 nM:
Cc1[nH]nc(C(F)(F)F)c1-c1cc(N2CCOC[C@H]2C)nc2c1cnn2-c1cc[nH]n1 [US20250066350, Example 1]
C[C@@H]1COCCN1c1cc(C2(O)CCC3(CC2)CO3)c2cnn(-c3cc[nH]n3)c2n1 (stereo partly specified) [US20250066350, Example 2]
Cc1nn(C2CCNCC2)c(C(F)(F)F)c1-c1cc(N2CCOC[C@H]2C)nc2c1cnn2-c1cc[nH]n1 [US20250066350, Example 3]
Cc1c(-c2cc(N3CCOC[C@H]3C)nc3c2cnn3-c2cc[nH]n2)c(C(F)(F)F)nn1C1CCNCC1 [US20250066350, Example 4]
COCC#Cc1cc(N2CCOC[C@H]2C)nc2c1cnn2-c1cc[nH]n1 [US20250066350, Example 5]
C[C@@H]1COCCN1c1cc(C#CC2(O)CCCCC2)c2cnn(-c3cc[nH]n3)c2n1 [US20250066350, Example 6]
C[C@@H]1COCCN1c1cc(-c2ccc(N3CCCCC3=O)cc2)c2cnn(-c3cc[nH]n3)c2n1 [US20250066350, Example 7]
C[C@@H]1COCCN1c1cc(C2=CCCOC2)c2cnn(-c3cc[nH]n3)c2n1 [US20250066350, Example 8]
Cc1ccc(-c2cc(N3CCOC[C@H]3C)nc3c2cnn3-c2cc[nH]n2)cn1 [US20250066350, Example 9]
C[C@@H]1COCCN1c1cc(C#CC2(O)CCC3(CC2)CC3)c2cnn(-c3ccn[nH]3)c2n1 [US20250066350, Example 10]
C[C@@H]1COCCN1c1cc(-c2ccnc3[nH]ccc23)c2cnn(-c3cc[nH]n3)c2n1 [US20250066350, Example 11]
C[C@@H]1COCCN1c1cc(C2CCCOC2)c2cnn(-c3cc[nH]n3)c2n1 (stereo partly specified) [US20250066350, Example 13]
C[C@@H]1COCCN1c1cc(-c2ccc(N3CC4(COC4)C3)cc2)c2cnn(-c3cc[nH]n3)c2n1 [US20250066350, Example 15]
C[C@@H]1COCCN1c1cc(C#CC(C)(C)O)c2cnn(-c3cc[nH]n3)c2n1 [US20250066350, Example 16]
C[C@@H]1COCCN1c1cc(-c2ccc(N3CC4CCC(O4)C3=O)cc2)c2cnn(-c3cc[nH]n3)c2n1 (stereo partly specified) [US20250066350, Example 65]
C[C@@H]1COCCN1c1cc(-c2ccc(NC(=O)c3cccc(S(C)(=O)=O)c3)cc2)c2cnn(-c3cc[nH]n3)c2n1 [US20250066350, Example 145]
CCC(CC)C(=O)Nc1ccc(-c2cc(N3CCOC[C@H]3C)nc3c2cnn3-c2cc[nH]n2)cc1 [US20250066350, Example 151]
C[C@@H]1COCCN1c1cc(-c2ccc(N3CCCCCC3=O)cc2)c2cnn(-c3cc[nH]n3)c2n1 [US20250066350, Example 153]
C[C@@H]1COCCN1c1cc(-c2ccc(NC(=O)C3CCOCC3)cc2)c2cnn(-c3cc[nH]n3)c2n1 [US20250066350, Example 155]
C[C@@H]1COCCN1c1cc(-c2ccc(NC(=O)C3CCNC3)cc2)c2cnn(-c3cc[nH]n3)c2n1 (stereo partly specified) [US20250066350, Example 157]
C[C@@H]1COCCN1c1cc(-c2ccc(NC(=O)C3CCCNC3)cc2)c2cnn(-c3cc[nH]n3)c2n1 (stereo partly specified) [US20250066350, Example 159]
CC(=O)N1CCC(C(=O)Nc2ccc(-c3cc(N4CCOC[C@H]4C)nc4c3cnn4-c3cc[nH]n3)cc2)C1 (stereo partly specified) [US20250066350, Example 161]
C[C@@H]1COCCN1c1cc(-c2ccc(NC(=O)c3ccccc3)cc2)c2cnn(-c3cc[nH]n3)c2n1 [US20250066350, Example 163]
C[C@@H]1COCCN1c1cc(-c2ccc(NC(=O)c3ccncn3)cc2)c2cnn(-c3cc[nH]n3)c2n1 [US20250066350, Example 165]
C[C@@H]1COCCN1c1cc(-c2ccc(N3CCCCC3=O)nc2)c2cnn(-c3cc[nH]n3)c2n1 [US20250066350, Example 167]
C[C@@H]1COCCN1c1cc(-c2ccc(N3CCCCC3=O)c(C#N)c2)c2cnn(-c3cc[nH]n3)c2n1 [US20250066350, Example 169]
C[C@@H]1COCCN1c1cc(-c2ccc(N3CCCCC3=O)c(F)c2)c2cnn(-c3cc[nH]n3)c2n1 [US20250066350, Example 171]
C[C@@H]1COCCN1c1cc(-c2ccc3c(c2)CCN3C(=O)c2ccncc2)c2cnn(-c3cc[nH]n3)c2n1 [US20250066350, Example 183]
C[C@@H]1COCCN1c1cc(-c2ccc(NC(=O)NC34CC5CC(CC(C5)C3)C4)cc2)c2cnn(-c3cc[nH]n3)c2n1 [US20250066350, Example 187]
C[C@@H]1COCCN1c1cc(-c2ccc(NC(=O)c3cccnc3)cc2F)c2cnn(-c3cc[nH]n3)c2n1 [US20250066350, Example 195]
C[C@@H]1COCCN1c1cc(-c2ccc(N3CCCCCC3=O)cc2F)c2cnn(-c3cc[nH]n3)c2n1 [US20250066350, Example 197]
C[C@@H]1COCCN1c1cc(-c2ccc(N3CC4CCC(O4)C3=O)cc2F)c2cnn(-c3cc[nH]n3)c2n1 (stereo partly specified) [US20250066350, Example 199]
C[C@@H]1COCCN1c1cc(-c2ccc(NC(=O)N3CCCC3)cc2)c2cnn(-c3cc[nH]n3)c2n1 [US20250066350, Example 207]
C[C@@H]1COCCN1c1cc(C#CC2CCCNC2)c2cnn(-c3ccn[nH]3)c2n1 (stereo partly specified) [US20250066350, Example 209]
C[C@@H]1COCCN1c1cc(-c2ccc(NC(=O)C3CCN(C)C3)cc2)c2cnn(-c3cc[nH]n3)c2n1 (stereo partly specified) [US20250066350, Example 213]
CNC(=O)N(C)c1ccc(-c2cc(N3CCOC[C@H]3C)nc3c2cnn3-c2cc[nH]n2)cc1 [US20250066350, Example 215]
C[C@@H]1COCCN1c1cc(-c2ccc(NC(=O)C(F)F)cc2)c2cnn(-c3cc[nH]n3)c2n1 [US20250066350, Example 217]
C[C@@H]1COCCN1c1cc(-c2ccc(N3CCCCC3=O)cc2C(F)(F)F)c2cnn(-c3cc[nH]n3)c2n1 [US20250066350, Example 242]
CC1CCCN1C(=O)Nc1ccc(-c2cc(N3CCOC[C@H]3C)nc3c2cnn3-c2cc[nH]n2)c(F)c1 (stereo partly specified) [US20250066350, Example 252]
C[C@@H]1COCCN1c1cc(-c2ccc(-c3ccnn3C)cc2F)c2cnn(-c3cc[nH]n3)c2n1 [US20250066350, Example 258]
C[C@@H]1COCCN1c1cc(-c2cc(C#N)c(N3CCCCC3=O)cc2F)c2cnn(-c3cc[nH]n3)c2n1 [US20250066350, Example 259]
